In US4243408A, “Herbicidal N-triazolylmethyl-substituted alpha-haloacetanilide” (Chevron Research Company, priority 1978, dated 1981):

test system: Pigweed (Amaranthus retroflexus); assay: Post-Emergent Test, herbicidal effectiveness; type: in vivo; conditions: post-emergence, 504 h, 33 micrograms per cm^2, 3 weeks, 0-to-100 scale, read-out: Herbicidal Effectiveness, % Control Post, P

Compound	pest or weed control at 5000 µg/mL, 33 µg/cm2
Cc1cccc(C)c1NCc1nnc[nH]1 [Compound 9A]	0%
Cc1nnc(CN(C(=O)CCl)c2ccc(Cl)c(Cl)c2)[nH]1 [Compound 27B]	0%
Cc1nnc(CNc2c(C)cccc2C)o1 [Compound 1A, 2-(2,6-dimethylphenylaminomethyl)-5-methyl-1,3,4-oxadiazole]	0%
Cc1cccc(C)c1NC(C)c1nnc[nH]1 (stereo not drawn) [Compound 12A]	0%
CSc1nnc(CNc2c(C)cccc2C)o1 [Compound 24A, 2-(2,6-dimethylphenylaminomethyl)-5-methylthio-1,3,4-oxadiazole]	0%
Cc1nnc(C(C)N(C(=O)CCl)c2c(C)cccc2C)[nH]1 (stereo not drawn) [Compound 11B]	20%
Cc1nnc(CNc2ccc(Cl)c(Cl)c2)[nH]1 [Compound 27A]	0%

test system: Mustard (Brassica arvensis); assay: Post-Emergent Test, herbicidal effectiveness; type: in vivo; conditions: post-emergence, 504 h, 33 micrograms per cm^2, 3 weeks, 0-to-100 scale

Compound	pest or weed control at 5000 µg/mL, 33 µg/cm2
Cc1cccc(C)c1NCc1nnc[nH]1 [Compound 9A]	0%
Cc1nnc(CN(C(=O)CCl)c2ccc(Cl)c(Cl)c2)[nH]1 [Compound 27B]	0%
Cc1nnc(CNc2c(C)cccc2C)o1 [Compound 1A, 2-(2,6-dimethylphenylaminomethyl)-5-methyl-1,3,4-oxadiazole]	0%
Cc1cccc(C)c1NC(C)c1nnc[nH]1 (stereo not drawn) [Compound 12A]	0%
CSc1nnc(CNc2c(C)cccc2C)o1 [Compound 24A, 2-(2,6-dimethylphenylaminomethyl)-5-methylthio-1,3,4-oxadiazole]	0%
Cc1nnc(C(C)N(C(=O)CCl)c2c(C)cccc2C)[nH]1 (stereo not drawn) [Compound 11B]	20%
Cc1nnc(CNc2ccc(Cl)c(Cl)c2)[nH]1 [Compound 27A]	0%

test system: Wild Oats (Avena fatua); assay: Post-Emergent Test, herbicidal effectiveness; type: in vivo; conditions: post-emergence, 504 h, 33 micrograms per cm^2, 3 weeks, 0-to-100 scale, read-out: Herbicidal Effectiveness, % Control Post, O

Compound	pest or weed control at 5000 µg/mL, 33 µg/cm2
Cc1cccc(C)c1NCc1nnc[nH]1 [Compound 9A]	0%
Cc1nnc(CN(C(=O)CCl)c2ccc(Cl)c(Cl)c2)[nH]1 [Compound 27B]	0%
Cc1nnc(CNc2c(C)cccc2C)o1 [Compound 1A, 2-(2,6-dimethylphenylaminomethyl)-5-methyl-1,3,4-oxadiazole]	0%
Cc1cccc(C)c1NC(C)c1nnc[nH]1 (stereo not drawn) [Compound 12A]	0%
CSc1nnc(CNc2c(C)cccc2C)o1 [Compound 24A, 2-(2,6-dimethylphenylaminomethyl)-5-methylthio-1,3,4-oxadiazole]	0%
Cc1nnc(C(C)N(C(=O)CCl)c2c(C)cccc2C)[nH]1 (stereo not drawn) [Compound 11B]	10%
Cc1nnc(CNc2ccc(Cl)c(Cl)c2)[nH]1 [Compound 27A]	0%

test system: Crabgrass (Digitaria sanguinalis); assay: Post-Emergent Test, herbicidal effectiveness; type: in vivo; conditions: post-emergence, 504 h, 33 micrograms per cm^2, 3 weeks, 0-to-100 scale, read-out: Herbicidal Effectiveness, % Control Post, C

Compound	pest or weed control at 5000 µg/mL, 33 µg/cm2
Cc1cccc(C)c1NCc1nnc[nH]1 [Compound 9A]	0%
Cc1nnc(CN(C(=O)CCl)c2ccc(Cl)c(Cl)c2)[nH]1 [Compound 27B]	0%
Cc1nnc(CNc2c(C)cccc2C)o1 [Compound 1A, 2-(2,6-dimethylphenylaminomethyl)-5-methyl-1,3,4-oxadiazole]	0%
Cc1cccc(C)c1NC(C)c1nnc[nH]1 (stereo not drawn) [Compound 12A]	0%
CSc1nnc(CNc2c(C)cccc2C)o1 [Compound 24A, 2-(2,6-dimethylphenylaminomethyl)-5-methylthio-1,3,4-oxadiazole]	0%
Cc1nnc(C(C)N(C(=O)CCl)c2c(C)cccc2C)[nH]1 (stereo not drawn) [Compound 11B]	55%
Cc1nnc(CNc2ccc(Cl)c(Cl)c2)[nH]1 [Compound 27A]	0%

test system: Watergrass (Echinochloa); assay: Post-Emergent Test, herbicidal effectiveness; type: in vivo; conditions: post-emergence, 504 h, 33 micrograms per cm^2, 3 weeks, 0-to-100 scale, read-out: Herbicidal Effectiveness, % Control Post, W

Compound	pest or weed control at 5000 µg/mL, 33 µg/cm2
Cc1cccc(C)c1NCc1nnc[nH]1 [Compound 9A]	0%
Cc1nnc(CN(C(=O)CCl)c2ccc(Cl)c(Cl)c2)[nH]1 [Compound 27B]	0%
Cc1nnc(CNc2c(C)cccc2C)o1 [Compound 1A, 2-(2,6-dimethylphenylaminomethyl)-5-methyl-1,3,4-oxadiazole]	0%
Cc1cccc(C)c1NC(C)c1nnc[nH]1 (stereo not drawn) [Compound 12A]	0%
CSc1nnc(CNc2c(C)cccc2C)o1 [Compound 24A, 2-(2,6-dimethylphenylaminomethyl)-5-methylthio-1,3,4-oxadiazole]	0%
Cc1nnc(C(C)N(C(=O)CCl)c2c(C)cccc2C)[nH]1 (stereo not drawn) [Compound 11B]	73%
Cc1nnc(CNc2ccc(Cl)c(Cl)c2)[nH]1 [Compound 27A]	0%

test system: Lambsquarter (Chenopodium album); assay: Post-Emergent Test, herbicidal effectiveness; type: in vivo; conditions: post-emergence, 504 h, 33 micrograms per cm^2, 3 weeks, 0-to-100 scale, read-out: Herbicidal Effectiveness, % Control Post, L

Compound	pest or weed control at 5000 µg/mL, 33 µg/cm2
Cc1cccc(C)c1NCc1nnc[nH]1 [Compound 9A]	0%
Cc1nnc(CN(C(=O)CCl)c2ccc(Cl)c(Cl)c2)[nH]1 [Compound 27B]	0%
Cc1nnc(CNc2c(C)cccc2C)o1 [Compound 1A, 2-(2,6-dimethylphenylaminomethyl)-5-methyl-1,3,4-oxadiazole]	0%
Cc1cccc(C)c1NC(C)c1nnc[nH]1 (stereo not drawn) [Compound 12A]	0%
CSc1nnc(CNc2c(C)cccc2C)o1 [Compound 24A, 2-(2,6-dimethylphenylaminomethyl)-5-methylthio-1,3,4-oxadiazole]	0%
Cc1nnc(C(C)N(C(=O)CCl)c2c(C)cccc2C)[nH]1 (stereo not drawn) [Compound 11B]	25%
Cc1nnc(CNc2ccc(Cl)c(Cl)c2)[nH]1 [Compound 27A]	0%

test system: Pigweed (Amaranthus retroflexus); assay: Pre-Emergent Test, herbicidal effectiveness; type: in vivo; conditions: pre-emergence, 504 h, 33 micrograms per cm^2, 3 weeks, 0-to-100 scale, read-out: Herbicidal Effectiveness, % Control Pre, P
Protocol: (§1) An acetone solution of the test compound was prepared by mixing 750 mg of the compound, 220 mg of a nonionic surfactant and 25 ml of acetone. This solution was added to approximately 125 ml of water containing 156 mg of surfactant.
(§2) Seeds of the test vegetation were planted in a pot of soil and the test solution was sprayed uniformly onto the soil surface at a dose of 33 micrograms/cm^2. The pot was watered and placed in a greenhouse. […] At the end of this period, the herbicidal effectiveness of the compound was rated based on the physiological observations. A 0-to-100 scale was used, 0 representing no phytotoxicity, 100 representing complete kill.

Compound	pest or weed control at 33 µg/cm2
Cc1cccc(C)c1NCc1nnc[nH]1 [Compound 9A]	0%
Cc1nnc(CN(C(=O)CCl)c2ccc(Cl)c(Cl)c2)[nH]1 [Compound 27B]	0%
Cc1nnc(CNc2c(C)cccc2C)o1 [Compound 1A, 2-(2,6-dimethylphenylaminomethyl)-5-methyl-1,3,4-oxadiazole]	0%
Cc1cccc(C)c1NC(C)c1nnc[nH]1 (stereo not drawn) [Compound 12A]	0%
CSc1nnc(CNc2c(C)cccc2C)o1 [Compound 24A, 2-(2,6-dimethylphenylaminomethyl)-5-methylthio-1,3,4-oxadiazole]	0%
Cc1nnc(C(C)N(C(=O)CCl)c2c(C)cccc2C)[nH]1 (stereo not drawn) [Compound 11B]	90%
Cc1nnc(CNc2ccc(Cl)c(Cl)c2)[nH]1 [Compound 27A]	0%

test system: Mustard (Brassica arvensis); assay: Pre-Emergent Test, herbicidal effectiveness; type: in vivo; conditions: pre-emergence, 504 h, 33 micrograms per cm^2, 3 weeks, 0-to-100 scale
Protocol: as §1, §2

Compound	pest or weed control at 33 µg/cm2
Cc1cccc(C)c1NCc1nnc[nH]1 [Compound 9A]	0%
Cc1nnc(CN(C(=O)CCl)c2ccc(Cl)c(Cl)c2)[nH]1 [Compound 27B]	0%
Cc1nnc(CNc2c(C)cccc2C)o1 [Compound 1A, 2-(2,6-dimethylphenylaminomethyl)-5-methyl-1,3,4-oxadiazole]	0%
Cc1cccc(C)c1NC(C)c1nnc[nH]1 (stereo not drawn) [Compound 12A]	0%
CSc1nnc(CNc2c(C)cccc2C)o1 [Compound 24A, 2-(2,6-dimethylphenylaminomethyl)-5-methylthio-1,3,4-oxadiazole]	0%
Cc1nnc(C(C)N(C(=O)CCl)c2c(C)cccc2C)[nH]1 (stereo not drawn) [Compound 11B]	80%
Cc1nnc(CNc2ccc(Cl)c(Cl)c2)[nH]1 [Compound 27A]	0%

test system: Wild Oats (Avena fatua); assay: Pre-Emergent Test, herbicidal effectiveness; type: in vivo; conditions: pre-emergence, 504 h, 33 micrograms per cm^2, 3 weeks, 0-to-100 scale, read-out: Herbicidal Effectiveness, % Control Pre, O
Protocol: as §1, §2

Compound	pest or weed control at 33 µg/cm2
Cc1cccc(C)c1NCc1nnc[nH]1 [Compound 9A]	0%
Cc1nnc(CN(C(=O)CCl)c2ccc(Cl)c(Cl)c2)[nH]1 [Compound 27B]	0%
Cc1nnc(CNc2c(C)cccc2C)o1 [Compound 1A, 2-(2,6-dimethylphenylaminomethyl)-5-methyl-1,3,4-oxadiazole]	0%
Cc1cccc(C)c1NC(C)c1nnc[nH]1 (stereo not drawn) [Compound 12A]	0%
CSc1nnc(CNc2c(C)cccc2C)o1 [Compound 24A, 2-(2,6-dimethylphenylaminomethyl)-5-methylthio-1,3,4-oxadiazole]	0%
Cc1nnc(C(C)N(C(=O)CCl)c2c(C)cccc2C)[nH]1 (stereo not drawn) [Compound 11B]	97%
Cc1nnc(CNc2ccc(Cl)c(Cl)c2)[nH]1 [Compound 27A]	0%

test system: Crabgrass (Digitaria sanguinalis); assay: Pre-Emergent Test, herbicidal effectiveness; type: in vivo; conditions: pre-emergence, 504 h, 33 micrograms per cm^2, 3 weeks, 0-to-100 scale, read-out: Herbicidal Effectiveness, % Control Pre, C
Protocol: as §1, §2

Compound	pest or weed control at 33 µg/cm2
Cc1cccc(C)c1NCc1nnc[nH]1 [Compound 9A]	0%
Cc1nnc(CN(C(=O)CCl)c2ccc(Cl)c(Cl)c2)[nH]1 [Compound 27B]	0%
Cc1nnc(CNc2c(C)cccc2C)o1 [Compound 1A, 2-(2,6-dimethylphenylaminomethyl)-5-methyl-1,3,4-oxadiazole]	0%
Cc1cccc(C)c1NC(C)c1nnc[nH]1 (stereo not drawn) [Compound 12A]	0%
CSc1nnc(CNc2c(C)cccc2C)o1 [Compound 24A, 2-(2,6-dimethylphenylaminomethyl)-5-methylthio-1,3,4-oxadiazole]	0%
Cc1nnc(C(C)N(C(=O)CCl)c2c(C)cccc2C)[nH]1 (stereo not drawn) [Compound 11B]	100%
Cc1nnc(CNc2ccc(Cl)c(Cl)c2)[nH]1 [Compound 27A]	0%

test system: Watergrass (Echinochloa); assay: Pre-Emergent Test, herbicidal effectiveness; type: in vivo; conditions: pre-emergence, 504 h, 33 micrograms per cm^2, 3 weeks, 0-to-100 scale, read-out: Herbicidal Effectiveness, % Control Pre, W
Protocol: as §1, §2

Compound	pest or weed control at 33 µg/cm2
Cc1cccc(C)c1NCc1nnc[nH]1 [Compound 9A]	0%
Cc1nnc(CN(C(=O)CCl)c2ccc(Cl)c(Cl)c2)[nH]1 [Compound 27B]	0%
Cc1nnc(CNc2c(C)cccc2C)o1 [Compound 1A, 2-(2,6-dimethylphenylaminomethyl)-5-methyl-1,3,4-oxadiazole]	0%
Cc1cccc(C)c1NC(C)c1nnc[nH]1 (stereo not drawn) [Compound 12A]	0%
CSc1nnc(CNc2c(C)cccc2C)o1 [Compound 24A, 2-(2,6-dimethylphenylaminomethyl)-5-methylthio-1,3,4-oxadiazole]	0%
Cc1nnc(C(C)N(C(=O)CCl)c2c(C)cccc2C)[nH]1 (stereo not drawn) [Compound 11B]	100%
Cc1nnc(CNc2ccc(Cl)c(Cl)c2)[nH]1 [Compound 27A]	0%

test system: Lambsquarter (Chenopodium album); assay: Pre-Emergent Test, herbicidal effectiveness; type: in vivo; conditions: pre-emergence, 504 h, 33 micrograms per cm^2, 3 weeks, 0-to-100 scale, read-out: Herbicidal Effectiveness, % Control Pre, L
Protocol: as §1, §2

Compound	pest or weed control at 33 µg/cm2
Cc1cccc(C)c1NCc1nnc[nH]1 [Compound 9A]	0%
Cc1nnc(CN(C(=O)CCl)c2ccc(Cl)c(Cl)c2)[nH]1 [Compound 27B]	0%
Cc1nnc(CNc2c(C)cccc2C)o1 [Compound 1A, 2-(2,6-dimethylphenylaminomethyl)-5-methyl-1,3,4-oxadiazole]	0%
Cc1cccc(C)c1NC(C)c1nnc[nH]1 (stereo not drawn) [Compound 12A]	0%
CSc1nnc(CNc2c(C)cccc2C)o1 [Compound 24A, 2-(2,6-dimethylphenylaminomethyl)-5-methylthio-1,3,4-oxadiazole]	0%
Cc1nnc(C(C)N(C(=O)CCl)c2c(C)cccc2C)[nH]1 (stereo not drawn) [Compound 11B]	100%
Cc1nnc(CNc2ccc(Cl)c(Cl)c2)[nH]1 [Compound 27A]	0%
